Assay results from a melting point compilation (Tetko et al.; mined from patent text by program, amines drawn as free bases though some values may be those of a salt).

| melting point | SMILES |
| --- | --- |
| 57 to 62 °C | CC(C)C[C@H](NCc1ccc(C(C)(C)C)cc1)C(=O)N1CCN(C(c2ccc(F)cc2)c2ccc(F)cc2)CC1 |
| 207 to 208 °C | COc1ccc(-c2ccccc2)c2sc(N)nc12 |
| 198 to 200 °C | O=C(/C=C/C1CCCCC1)N1CCN(C(=O)c2cc(C(F)(F)F)cc(C(F)(F)F)c2)[C@H](Cc2c[nH]c3ccccc23)C1 |
| 70 to 72 °C | COC(=O)Oc1cc(NC(=O)OCc2ccccc2)c(F)cc1Cl |
| 214 to 215 °C | CC(C)Oc1ccc(OCc2ccccc2)cc1-c1nc2ccc(C#N)nc2[nH]1 |
| 136 °C | CNCc1nc(-c2cc(C(C)(C)C)c(O)c(C(C)(C)C)c2)cs1 |
| 43 to 44 °C | CC(=O)C12CCC(CC1)CC2(C)O (centres undefined) |
| 164 to 166 °C | Cc1cc(Br)cnc1CCCCNc1ncc(Cc2cccnc2)cc1O |
| 119 to 120 °C | COc1cnnc(Oc2ccnc(OC(F)F)c2)c1 |
| 81 to 82 °C | C[Si](C)(C)C#Cc1ccc(C#N)cc1[N+](=O)[O-] |
| 180 to 181 °C | Cn1nc(C(F)(F)F)cc1-c1ccc(CN2CCN(c3ccc(OCC4CCn5cc([N+](=O)[O-])nc5O4)cc3)CC2)s1 (centres undefined) |
| 200 °C | CCOP(=O)(OCC)Oc1c(C2CCCCN2CCCCNC(=O)c2ccc(NC(=O)c3ccc(Cl)cc3)cc2)ccc2c1CCCC2 (centres undefined) |
| 173 to 176 °C | CCCCCCCCCCCCCCCCNc1ccc(C(=O)NS(=O)(=O)c2ccc(C(C)(C)C)cc2)cc1 |
| 155 °C | COc1ccc(-c2cncc(OC3SCC(OC(C)=O)C(OC(C)=O)C3OC(C)=O)c2)cc1Cl (centres undefined) |
| 94 to 95 °C | O=C(Nc1ccccc1)c1csc(Oc2cccc(Cl)c2)n1 |
| 220 to 221 °C | CC(CCNC1=Nc2cccc3cccc1c23)c1ccncc1 (centres undefined) |
| 134 to 136 °C | COC(=O)c1cccc(NC=O)n1 |
| 189 to 191 °C | COc1ccc(S(=O)(=O)N2Cc3ccccc3N(C(=O)c3ccc(OC)cc3OC)CC2C(=O)NO)cc1 (centres undefined) |
| 162 to 164 °C | O=C1CCCc2nc3ccccc3c(NCc3ccc(Cl)cc3)c21 |
| 132 to 135 °C | CC(COc1ccc2c(c1)CCCC2=O)n1ccnc1 (centres undefined) |
| 148 to 149 °C | CCC(=O)N(C)c1cccc(C(=O)C=CN(C)C)c1 |
| 235 to 237 °C | COc1ccccc1CNC(=O)c1[nH]c2ccc(Cl)cc2c1S(=O)(=O)c1ccccc1 |
| 146 to 148 °C | CCOC(Cc1ccc(NC/C=C/c2ccc(OS(C)(=O)=O)cc2)cc1)C(=O)O (centres undefined) |
| 127 °C | CCC(=O)Oc1cc(OC)cc(OC)c1C(=O)C=Cc1cccs1 |

| melting point | SMILES |
| --- | --- |
| 174 to 175 °C | COc1cc(-c2cncn2-c2ccc(S(C)(=O)=O)cc2)ccc1C |
| 72 to 75 °C | O=C(N1CC2CC2(c2ccc(Cl)cc2)C1)C12CC3CC(CC(C3)C1)C2 (centres undefined) |
| 111 to 113 °C | Fc1ccc(OC2CN(CCc3c[nH]c4ccccc34)C2)cc1 |
| 253 °C | N#Cc1c(N2CCN(C(=O)c3ccco3)CC2)c2cc(Cl)ccc2n(Cc2ccc(F)cc2)c1=O |
| 134 °C | Cc1ccc(C(=O)NC/C=C/c2ccccc2)cc1 |
| 167 to 169 °C | CN(C)S(=O)(=O)c1ccccc1S(=O)(=O)NC(=O)Nc1nc(F)cc(OC(F)(F)F)n1 |
| 105 to 109 °C | CC(C)CC(C=O)NC(=O)C(Cc1c[nH]cn1)NC(=O)C(CNC(=O)Cc1cccc2ccccc12)Cc1ccccc1 (centres undefined) |
| 176 to 178 °C | Cn1cc(C#N)c(-c2ccc([N+](=O)[O-])o2)n1 |
| 337 to 339 °C | Oc1ccc(-c2cc3cc(O)cc(CBr)c3o2)cc1 |
| 180 to 182 °C | O=C1OCCN1CCN1CCN(C2Cc3cc(Cl)ccc3Oc3ccc(F)cc32)CC1 (centres undefined) |
| 81 to 82 °C | Cc1cc(C2=C(c3cccc(F)c3)C(=O)C(C)(C)O2)ccc1S(N)(=O)=O |
| 198 to 199 °C | COC(=O)NNc1cc(C)c(-c2cccc([N+](=O)[O-])c2)nn1 |
| 105 to 109 °C | CCCCCCCCNC(=O)c1c(N)cc(Cl)cc1Cl |
| 158 °C | O=C(/C=C/c1ccc(C(=O)Nc2cccc(Nc3nc(-c4cccnc4)cs3)c2)cc1)NOC1CCCCO1 (centres undefined) |
| 174 to 175 °C | CCC(C)NC(=O)C1=C(C(=O)Nc2cc(OC3CCCC3)c(Cl)cc2F)CCCC1 (centres undefined) |
| 153 to 154 °C | Cc1cc(S(=O)(=O)Nc2cccnc2Nc2ccccc2)c(C)cc1Cl |
| 96.2 to 96.8 °C | Cc1ccc(Nc2ccc3c4c(cccc24)CC3)cc1 |
| 150 to 151 °C | C=CCOC(=O)C(C)(C)Cc1c(SC(C)(C)C)c2cc(O)ccc2n1Cc1ccc(Cl)cc1 |
| 193 °C | COc1ccc(C(=O)c2cc(-c3ccncc3)c(N3CCOCC3)s2)cc1 |
| 202 to 204 °C | COCCc1nc2c(N)nc3cc(-c4cncc(CO)c4)ccc3c2n1CC(C)C |
| 73 to 74 °C | CCC(COc1cccc(C(F)(F)F)c1)OC(=O)NCc1ccccc1 (centres undefined) |
| 131 to 133 °C | Cc1nc2nc(S(=O)(=O)Cl)nn2c(C)c1Cl |
| 246 to 248 °C | CCOC(=O)CC1(S(N)(=O)=O)c2ccccc2-c2ccc(Cl)cc21 (centres undefined) |
| 107 to 109 °C | OC(CNc1ccc(Cl)cc1Cl)Cn1ccnc1 (centres undefined) |

| melting point | SMILES |
| --- | --- |
| 168 to 169 °C | O=C(c1ccc(Cl)c(Cl)c1)N1CCC(Br)C(c2ccccc2)=N1 (centres undefined) |
| 105 to 108 °C | CCCc1c(OCCCOc2c(C(C)=O)ccc(OCCCCCC(=O)O)c2CCC)ccc(C(C)=O)c1O |
| 116 to 118 °C | CCCc1c(OCCCCCCc2cccc(OCCCC(=O)O)c2CCC(=O)O)ccc2c1OCCC2=O |
| 151 to 153 °C | COc1c2c(cc3c1OCO3)C(O)CN(C)C2 (centres undefined) |
| < 300 °C | CNC(=O)c1cc(C(=O)O)cc(C(=O)NC)n1 |
| 64 to 66 °C | C=CCc1cnc2c([N+](=O)[O-])cccc2c1Cl |
| 88 to 89 °C | CC(=O)C(=O)N1CCC[C@H]1C(=O)O |
| 174 to 176 °C | Cc1cc(-c2cc(C(F)(F)F)nn2-c2ccc(S(C)(=O)=O)cc2)ccc1-c1ccco1 |
| 150 to 151 °C | Brc1ccc2cc(OCc3ccccc3)c(C34CC5CC(CC(C5)C3)C4)cc2c1 |
| 130 to 131 °C | NS(=O)(=O)CCCSc1ccc2ncnn2n1 |
| 57 to 59 °C | CCCCCCNC(=O)n1nc(Oc2ncc(C(F)(F)F)cc2Cl)c(Cl)c1C |
| 112 to 113 °C | COc1ccc(C(=O)Nc2cc3c(cc2CCC2CCCCN2C)OCO3)cc1 (centres undefined) |
| 251 to 252 °C | COc1cccc([C@H]2O[C@H](CC(=O)Nc3nc(C)c(C(=O)O)s3)C(=O)N(CC(C)(C)CO)c3ccc(Cl)cc32)c1OC |
| 106 to 108 °C | Cc1ccc(C(=O)NCCc2ccccc2Cl)cc1 |
| 199 to 200 °C | O=C(NCc1ccncc1)c1cc2ccnc(NCc3ccccc3)c2[nH]1 |
| 283 °C | COc1cc2ccc(-c3ccc(C(=O)O)cc3)cc2cc1C(C)(C)C |
| 140 to 142 °C | CCOC(=O)/C=C/C=C/c1cc2cc(N(C)C)ccc2s1 |
| 63 to 64 °C | COC(=O)c1ccc2c(c1)SCCCC2=O |
| 235 to 238 °C | NC(CN1C(=O)C2(COc3cc4c(cc32)OCO4)c2ccccc21)=NO (centres undefined) |
| 128 to 132 °C | COc1ccc([C@@H]2Sc3cc(Oc4ccc(F)cc4)ccc3N(CCN(C)C)C(=O)[C@@H]2OC(C)=O)cc1F |
| 52 to 53 °C | CCOC(=O)c1nnc(N(C)C)n1C |
| 165 to 172 °C | CCNC(=O)c1c(C2CC2)nc(CC)n1Cc1ccc2oc(-c3ccccc3NS(=O)(=O)C(F)(F)F)cc2c1 |
| 217 to 219 °C | COc1ccccc1-c1cc(S(=O)(=O)c2ccc(N)cc2)cc(N2CCCC2)n1 |
| 193 to 195 °C | O=C(O)Cn1cc(Cc2nc3c(F)c(F)cc(F)c3s2)c2cc(F)ccc21 |

| melting point | SMILES |
| --- | --- |
| 137 to 138 °C | Cc1nc(-c2cccc(Nc3ccc(I)cc3[N+](=O)[O-])c2)cs1 |
| 174 to 175 °C | OC(CCc1ccccc1)c1cnc2sc3ccccc3n12 (centres undefined) |
| 155 to 156 °C | CN(O)C(=O)CCc1cc(-c2ccc(Cl)cc2)n(-c2ccccc2)n1 |
| 105 to 108 °C | COC(=O)c1cc(Cl)c2c(c1OC)CCCN2 |
| 213 to 216 °C | O=C(O)c1cc(F)c(O)nc1Nc1ccc(F)cc1F |
| 180 °C | CC(C)NC(COc1ccccc1C(=O)Nc1cccc2[nH]ccc12)NC(C)C |
| 147 to 148 °C | CN(C(CCn1c(=O)cc(Cl)[nH]c1=O)C(=O)NO)S(=O)(=O)c1ccc(Oc2cccc(F)c2)cc1 (centres undefined) |
| 232 to 234 °C | CCn1cc(C(=O)O)c(=O)c2cc(F)c(N3CCNC(c4ccc(Cl)s4)C3)cc21 (centres undefined) |
| 188 to 192 °C | Cc1ccc2c(c1)C1(CNC(=O)C1)CC2=O (centres undefined) |
| 219 °C | CNNc1ncn(-c2ccccc2)c(=O)n1 |
| 193 to 194 °C | CC(=O)NC[C@H]1CN(c2ccc(N3C=CS(=O)(=O)CC3)c(F)c2)C(=O)O1 |
| 244 to 248 °C | Cc1sc(-c2ccc([N+](=O)[O-])cc2)nc1O |
| 180 to 181 °C | CCOC(=O)c1cc2cccc(NS(=O)(=O)c3ccc(Cl)s3)c2[nH]1 |
| 114 to 117 °C | CCOC(=O)N1N=C(c2ccc(N)cc2)c2cc(Br)ccc2CC1C (centres undefined) |
| 155 °C | CN1CCN(c2ccc(C3(C)C(=O)Nc4ccc(Cl)cc43)c(Cl)c2)CC1 (centres undefined) |
| 70 to 74 °C | O=C(O)c1cnn(CCCCN2CCN(C(c3ccccc3)c3ccccc3)CC2)c1 |
| 139 to 141 °C | Cc1cccc(Cl)c1Nc1ccccc1CC(N)=O |
| 205 to 206 °C | O=c1ccn(-c2ccc(N3CCOCC3)cc2)nc1-c1ccnn1-c1ccccc1 |
| 81 to 82 °C | CNC(=O)c1cccc(NC(=O)Cc2cc(OC)c(OC)c(OC)c2)c1 |
| 197 to 199 °C | CCC(CC)N1C(=O)NCc2c1cc(C)nc2Oc1c(C)cc(C)cc1C |
| 22 °C | S=C=NCc1ccc(Cl)nc1 |
| 253 to 254 °C | Cc1cc(=O)oc2cc(NC(=O)CO)ccc12 |

| SMILES | melting point |
| --- | --- |
| C=C1C[C@@H]2[C@H](CC[C@]3(C)C(=O)CC[C@@H]23)[C@@]2(C)CCC(=O)C(OC(C)=O)=C12 | 183 to 185 °C |
| COC(=O)c1ccc(CC(C)NCC(O)c2cc(Cl)c(N)c(Cl)c2)cc1 (centres undefined) | 97 to 115 °C |
| Cn1nnc2c(N3CCNCC3)ncnc21 | 95 to 96 °C |
| CCCNCC(O)c1cccc(F)c1 (centres undefined) | 46 to 47.3 °C |
| CC12CCC(O)CC1=CC(O)C1C2CCC2(C)C(O)C(O)CC12 (centres undefined) | 217 to 221 °C |
